Data: BindingDB's records for patent US10106535 (Chdi Foundation, 2018)

Biological target: Histone deacetylase 4 (Homo sapiens, UniProt P56524)
Assay: Biochemical HDAC-4 Assay
Experimental: 5 μl of each solution of 1:20 diluted compound from above is transferred to a clear bottomed, black, 384-well assay plate using the Bravo or the Janus (384-well MDT head from Perkin Elmer). Using a 16-channel Matrix multi-channel pipette, 35 μl of the working solution of HDAC4 catalytic domain enzyme (0.2 μg/ml in assay buffer) is transferred to the assay plate. The assay is then started by adding 10 μl of 5× (50 μM) substrate to the assay plates using either the Bravo, Janus or 16-channel Matrix multi-channel pipette. The assay plate is then shaken for two minutes on an orbital shaker at 900 rpm (rotations per minute). Next the plate is incubated for 15 minutes at 37° C. The reaction is stopped by adding 25 μl of 3× (30 μM) developer/stop solution to the assay plates using either the Bravo, Janus or a 16-channel Matrix multi-channel pipette. Assay plates are then shaken for 5 minutes on an orbital shaker at 1200 rpm. Next, the assay plates are incubated at 37° C. for 1 hour in a tissue culture incubator. Finally, the fluorescence is measured (Excitation: 355 nm, Emission: 460 nm) using PerkinElmer EnVision in top read mode.

Chain of Histone deacetylase 4 (P56524 whole entry): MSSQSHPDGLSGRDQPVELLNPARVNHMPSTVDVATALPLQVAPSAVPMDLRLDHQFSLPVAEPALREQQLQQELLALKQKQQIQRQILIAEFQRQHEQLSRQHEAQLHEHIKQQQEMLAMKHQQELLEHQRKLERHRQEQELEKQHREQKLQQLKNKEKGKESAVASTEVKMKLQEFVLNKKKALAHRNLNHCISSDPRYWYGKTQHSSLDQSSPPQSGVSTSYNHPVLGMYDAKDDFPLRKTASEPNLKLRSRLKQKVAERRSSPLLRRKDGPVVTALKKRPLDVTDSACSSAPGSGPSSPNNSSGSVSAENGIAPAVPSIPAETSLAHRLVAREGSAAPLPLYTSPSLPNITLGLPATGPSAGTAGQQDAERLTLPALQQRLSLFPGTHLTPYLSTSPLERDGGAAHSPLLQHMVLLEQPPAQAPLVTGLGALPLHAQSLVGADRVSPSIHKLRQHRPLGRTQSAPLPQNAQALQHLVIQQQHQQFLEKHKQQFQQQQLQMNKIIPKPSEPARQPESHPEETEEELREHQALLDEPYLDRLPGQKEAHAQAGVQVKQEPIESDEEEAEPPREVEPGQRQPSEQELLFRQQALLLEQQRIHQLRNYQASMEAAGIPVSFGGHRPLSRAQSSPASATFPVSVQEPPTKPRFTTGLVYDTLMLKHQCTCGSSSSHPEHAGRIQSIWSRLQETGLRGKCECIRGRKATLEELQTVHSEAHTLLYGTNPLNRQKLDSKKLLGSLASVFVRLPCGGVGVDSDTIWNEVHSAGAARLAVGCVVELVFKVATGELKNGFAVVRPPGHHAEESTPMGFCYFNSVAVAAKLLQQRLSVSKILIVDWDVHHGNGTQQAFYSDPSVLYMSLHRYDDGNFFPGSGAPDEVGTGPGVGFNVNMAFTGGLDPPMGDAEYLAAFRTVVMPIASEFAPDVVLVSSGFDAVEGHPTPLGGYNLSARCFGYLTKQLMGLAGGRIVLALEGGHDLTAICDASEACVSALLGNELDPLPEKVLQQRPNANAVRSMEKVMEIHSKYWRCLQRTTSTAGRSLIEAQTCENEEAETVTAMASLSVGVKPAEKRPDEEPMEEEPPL

IC50: 12.3 µM
Structure (SMILES): O=C(NO)C1C=CCC1c1ccccc1 (stereo unspecified) [US10106535, Example 30]
